Source: EP2570413A1, “Benzothiazinone derivatives as anti-tuberculosis agents” (The University Of Queensland, priority 2011, dated 2013)
Converted amounts (≈) assume the structure as drawn.

Legend:
Plasma stability, human = assay type: in vitro ADME
M. smegmatis SG987 [1] = assay: MIC assay, broth microdilution; assay type: cell-based, Mycobacterium smegmatis; conditions: for MIC: Mycolicibacterium smegmatis, SG987, read-out: MIC M. smeg. SG987
Text: The protocol used is the broth microdilution method in microtiter plates (MTP), based upon that detailed by the CLSI (Clinical and Laboratory Standards Institute (CLSI). 2006. Methods for Dilution Antimicrobial Susceptibility Tests for Bacteria that Grow Aerobically; Approved Standard. 7th edn. Document M7-A6. Clinical and Laboratory Standards Institute, Wayne, PA.).
Strain: Mycobacterium smegmatis, ATCC 700084, or other Mycobacterium strains (see table below).
Medium: The bacteria culture and the MIC were done using the following medium: MHB - Mueller-Hinton Broth + 0.05% Tween80, purchased from Difco, Tween80 has been added to avoid clumping of the bacteria.
This highest concentration is filled in the first row of the microtiter plate and further diluted in the culture medium for the Mycobacteria (Mueller-Hinton Broth and Middlebrook 7H9 broth). All solutions are freshly prepared under sterile conditions.
Resazurin salt powder (Sigma) is prepared at 0.01 % (wt/vol) in distilled water, sterilized by filtration through a 0.22 µm membrane and stored at 4°C for a week.
Ciprofloxacin, isoniaz-d and rifampicin can be used as reference compounds for control of the assay as well as a solvent control. Minimal inhibitory concentrations (MIC) are determined by the broth microdilution method. 50 µl of the compound solution in DMSO/MeOH are serially diluted directly in the microtiter plate by factor two with Mueller-Hinton broth (MHB)(Difco). Then the wells are inoculated with 50 µl of test organisms in MHB to give a final concentration of 5x10^5 CFU/ml. After microtiter plates are incubated at 37°C for 48 h, the optical density of each well is measured with a Nepheloscan Ascent 1.4 automatic plate reader (Labsystems, Vantaa, Finland). Then 30 µl of resazurin solution is added to each well and plates are allowed to incubate at 37°C for additional 24 h. A change from blue to pink indicates reduction of resazurin and therefore bacterial growth. The MIC is defined as the lowest drug concentration that prevents this colour change.

[2] = Chemical stability in NaCl/HCl/pepsin; assay type: physicochemical
[3] = Metabolic stability, human; assay type: in vitro ADME
[4] = Metabolic stability, mouse; assay type: in vitro ADME
M. smegmatis SG987 [5] = assay: Agar diffusion assay; assay type: cell-based, Mycobacterium smegmatis; parameters: key to colonies in the inhibition zone: (p): few colonies in the inhibition zone; p: colonies in the inhibition zone; P: many colonies in the inhibition zone; A: faint indication of inhibition zone; conditions: for zone of inhibition at 1 µg/mL: Mycolicibacterium smegmatis; for colonies in the inhibition zone: at 1 µg/ml
Description: Antimicrobial activity is additionally determined by agar diffusion tests according to: European Pharmacopoeia, 3rd edition, 1997; 13, 118, Deutscher Apotheker Verlag Stuttgart
100 µl suspension of the test organism M. smegmatis SG987 with a density of McFarland standard 0.5 are inoculated into 34 ml of sterile melted agar medium (Nutrient agar from Serva Electrophoresis GmbH, Heidelberg, Germany) and poured into Petri dishes. Wells of 9 mm in diameter are cut in the agar and filled with 50 µl of the compound solution (for concentrations see Table 2). Compounds are dissolved in DMSO in a concentration of 1 mg/ml and further diluted in methanol to the final concentration. Growth inhibition zones around the agar wells are read after overnight incubation at 37°C.

MDR M. tuberculosis = assay: MIC assay, broth microdilution; assay type: cell-based; conditions: for MIC: Mycobacterium tuberculosis, read-out: MIC M. 1b.
Plasma stability, mouse = assay type: in vitro ADME
M. vaccae 10670 = assay: MIC assay, broth microdilution; assay type: cell-based; conditions: for MIC: Mycolicibacterium vaccae, 10670
M. aurum = assay: MIC assay, broth microdilution; assay type: cell-based; conditions: Mycolicibacterium aurum
M. tuberculosis H37Rv = assay: In-vivo mouse survival; conditions: 50 img/kg
M fort. = assay: MIC assay, broth microdilution; assay type: cell-based
Mycobacteria = conditions: existing anti-tuberculosis drugs, comparison values; cited from earlier work
[6] = Human, test compound 5 µM in plasma
[7] = Test compound 5 µM in 35mM NaCl, 85 mM HCl, appr. 2000 U pepsin
[8] = Human, test compound 1 µM in NADP (1.3 mM), G6P 3.3 mM, G6PDHase, DMSO
[9] = Mouse, test compound 1 µM in NADP (1.3 mM), G6P 3.3 mM, G6PDHase, DMSO
[10] = Mouse, test compound 5 µM in plasma

Structure (SMILES) | Plasma Stability Human (Plasma stability, human; [6]) [%] | MIC (M. smegmatis SG987 [1]) [ng/mL] | Chemical Stability [2, 7] [%] | Metabolic Stability Human [3, 8] [%] | Metabolic Stability Mouse [4, 9] [%] | zone of inhibition at 1 µg/mL (M. smegmatis SG987 [5]) [mm] | MIC (MDR M. tuberculosis) [ng/mL] | Plasma Stability Mouse (Plasma stability, mouse; [10]) [%] | MIC (M. vaccae 10670) [ng/mL] | other results
O=c1nc(N2CCC(c3ccc(Cl)cc3)CC2)sc2c([N+](=O)[O-])cc(C(F)(F)F)cc12 [Compound 2] | 86 | < 5 | 52 | 59 | 39 | 22 | 4 (≈ 8.51 nM) | 88 | < 0.0012 | MIC M. smeg. SG987 (M. smegmatis SG987 [1]; M. smeg. SG987): < 5 ng/mL; MIC M. 1b. (MDR M. tuberculosis; M. 1b., MDR M. tuberculosis): 4 ng/mL (≈ 8.51 nM); MIC M. vaccae 10670 (M. vaccae 10670; M. vaccae 10670): < 0.0012 ng/mL
O=c1nc(N2CCC(c3ccccc3)CC2)sc2c([N+](=O)[O-])cc(C(F)(F)F)cc12 [Compound 1] | 96 | 4 (≈ 9.19 nM) | 82 | 120 | 75 |  | < 15 | 71 | 0.4 (≈ 0.919 nM) | MIC (M. aurum): > 100 ng/mL; In-vivo Mouse Survival 4 wks (M. tuberculosis H37Rv): 4 of 10; MIC (M fort.): 12.5 ng/mL (≈ 28.7 nM)
CC[C@@H](CO)NCCN[C@@H](CC)CO [ethambutol] |  |  |  |  |  |  |  |  |  | MIC (Mycobacteria): 1000 to 5000 ng/mL
Cc1ccc(C2CCN(c3nc(=O)c4cc(C(F)(F)F)cc([N+](=O)[O-])c4s3)CC2)cc1 [Compound 3] | 98 | < 5 | 54 | 30 | 9 | < 22 | 8 (≈ 17.8 nM) | 108 | < 0.0012 | 
O=C(O)c1cn(C2CC2)c2cc(N3CCNCC3)c(F)cc2c1=O [III (Ref.), ciprofloxacin, reference compound] |  | 200 (≈ 604 nM) |  |  |  | 20 |  |  |  | colonies in the inhibition zone (M. smegmatis SG987 [5]): p
O=c1nc(N2CCC(Cc3ccccc3)CC2)sc2c([N+](=O)[O-])cc(C(F)(F)F)cc12 [Compound 6] | 98 | < 5 | 55 | 1 | 0 |  | 32 (≈ 71.2 nM) | 108 | < 0.0012 | 
O=c1nc(N2CCC(c3cccc(F)c3)CC2)sc2c([N+](=O)[O-])cc(C(F)(F)F)cc12 [Compound 4] | 99 | < 5 | 71 | 28 | 10 | 24 | 16 (≈ 35.3 nM) | 107 | < 0.0012 | 
Cc1cccc(C2CCN(c3nc(=O)c4cc(C(F)(F)F)cc([N+](=O)[O-])c4s3)CC2)c1 [Compound 7] | 103 | < 5 | 53 | 21 | 18 |  | 8 (≈ 17.8 nM) | 100 | < 0.0012 | 
O=c1nc(N2CCC(c3ccc(F)c(F)c3)CC2)sc2c([N+](=O)[O-])cc(C(F)(F)F)cc12 [Compound 5] | 124 | < 5 | 63 | 49 | 28 | 27 | 8 (≈ 17 nM) | 111 | < 0.0012 | 
O=c1nc(N2CCN(Cc3ccccc3)CC2)sc2c([N+](=O)[O-])cc(C(F)(F)F)cc12 [II (Ref.), reference compound] |  | 50 (≈ 111 nM) |  |  |  |  |  |  | 50 (≈ 111 nM) | MIC (M fort.): 50 ng/mL (≈ 111 nM)
NNC(=O)c1ccncc1 [isoniazid] |  |  |  |  |  |  |  |  |  | MIC (Mycobacteria): 20 to 200 ng/mL
O=c1nc(N2CCC(c3ccccc3F)CC2)sc2c([N+](=O)[O-])cc(C(F)(F)F)cc12 [Compound 8] | 107 | < 5 | 61 | 69 | 78 | 27 | 8 (≈ 17.6 nM) | 105 | < 0.0012 | 
C[C@H]1COC2(CCN(c3nc(=O)c4cc(C(F)(F)F)cc([N+](=O)[O-])c4s3)CC2)O1 [I (Ref.), reference compound] |  | < 5 |  |  |  | 17 | < 15 |  | 0.625 (≈ 1.45 nM) | Plasma Stability Human (Plasma stability, human; human, 5 µM): 98%; MIC (M. aurum): > 100000 ng/mL; Chemical Stability ([2]; 5 µM): 98%; MIC (M fort.): 1.56 ng/mL (≈ 3.62 nM); Metabolic Stability Human ([3]; human, 1 µM): 107%; Metabolic Stability Mouse ([4]; mouse, 1 µM): 97%; colonies in the inhibition zone (M. smegmatis SG987 [5]): p-P; Plasma Stability Mouse (Plasma stability, mouse; mouse, 5 µM): 45%
